Values joined by “and” are separate entries in the source; they are usually repeats but may differ in a detail not shown here. Equal entries are not always repeated.
Key:
Assay type in all cases: cell-based
TASK-1 = molecular target: T1, TASK-1 (Homo sapiens, UniProt O14649); test: Tl+-flux assay in HEK-293 cells, TASK-1; details: HEK293; 10 µM test compound; relative to control bepridil; read-out: Percent Inhibition ± SEM, TASK-1
T1 construct: expressed in transfected cells; host or cells: HEK293
Source text: (§1) Having executed our plan to prepare analogs across the identified regions of the chemotype (Figure 2), we identified two analogs for further profiling and evaluation. […] Desiring to add a second compound with some measure of structural differences, we also chose another submicromolar SLACK inhibitor 66 (VU0936154). Whereas 40 contains an ether linker and a halogenated phenyl group in the eastern region, […] contains an N-methyl linker and a phenyl group with a more polar cyano substituent. We first screened these analogs at 10 µM versus our in-house panel of ion channel targets using Tl^+-flux assays in HEK-293 cells expressing the human target of interest. […] Included in this set are Slo family members SLICK and two isoforms of Maxi-K, as well as several different K^+, Na^+, and Ca^2+ channels (Table 6). […] Of note was the excellent selectivity versus the broader panel of targets for both compounds, including versus the hERG channel.
(§2) Stably transfected monoclonal HEK293 cell lines expressing SLICK, Maxi-K α1/β3, Maxi-K α1/β4, CaV3.2, GIRK 1/2, KV2.1, KV7.2, NaV1.7, and TASK-1 were generated as previously described. […]
(§3) The Tl^+ flux assays were conducted as previously described, with modifications optimized for individual cell lines as described below. […] Cell plates were then loaded onto a Panoptic kinetic imaging plate reader (WaveFront Biosciences, Franklin, TN, USA). […]

KV7.2 = molecular target: T2, KV7.2 (Homo sapiens, UniProt O43526); test: Tl+-flux assay in HEK-293 cells, KV7.2; details: HEK293; 10 µM test compound; relative to control XE991; read-out: Percent Inhibition ± SEM, KV7.2
T2 construct: expressed in transfected cells; host or cells: HEK293
Source text: as §1, §2, §3

hERG = molecular target: T3, hERG (Homo sapiens, UniProt Q12809); test: Tl+-flux assay in HEK-293 cells, hERG; details: HEK293 cells stably expressing hERG, pH 7.3, 10 µM test compound, relative to control bepridil, read-out: Percent Inhibition ± SEM, hERG
T3 construct: expressed in transfected cells; host or cells: HEK293
Source text: as §1, §2, §3

KV2.1 = molecular target: T4, KV2.1 (Homo sapiens, UniProt Q14721); test: Tl+-flux assay in HEK-293 cells, KV2.1; details: HEK293; 10 µM test compound; relative to control guangxitoxin 1E; read-out: Percent Inhibition ± SEM, KV2.1
T4 construct: expressed in transfected cells; host or cells: HEK293
Source text: as §1, §2, §3

SLICK = molecular target: T5, SLICK (Homo sapiens, UniProt Q6UVM3); test: Tl+-flux assay in HEK-293 cells, SLICK; details: 10 µM test compound
T5 construct: expressed in transfected cells; host or cells: HEK293
Source text: as §1, §2, §3

Maxi-K α1/β3 = molecular target: T6, Maxi-K α1/β3 (Homo sapiens, UniProt Q12791); test: Tl+-flux assay in HEK-293 cells, Maxi-K α1/β3; details: HEK293; 10 µM test compound; relative to control paxilline; read-out: Percent Inhibition ± SEM, Maxi-K α1/β3
T6 construct: expressed in transfected cells; host or cells: HEK293
Source text: as §1, §2, §3

CaV3.2 = molecular target: T7, CaV3.2 (Homo sapiens, UniProt O95180); test: Tl+-flux assay in HEK-293 cells, CaV3.2; details: HEK293; 10 µM test compound; relative to control bepridil; read-out: Percent Inhibition ± SEM, CaV3.2
T7 construct: expressed in transfected cells; host or cells: HEK293
Source text: as §1, §2, §3

T5 sequence (Q6UVM3 whole entry): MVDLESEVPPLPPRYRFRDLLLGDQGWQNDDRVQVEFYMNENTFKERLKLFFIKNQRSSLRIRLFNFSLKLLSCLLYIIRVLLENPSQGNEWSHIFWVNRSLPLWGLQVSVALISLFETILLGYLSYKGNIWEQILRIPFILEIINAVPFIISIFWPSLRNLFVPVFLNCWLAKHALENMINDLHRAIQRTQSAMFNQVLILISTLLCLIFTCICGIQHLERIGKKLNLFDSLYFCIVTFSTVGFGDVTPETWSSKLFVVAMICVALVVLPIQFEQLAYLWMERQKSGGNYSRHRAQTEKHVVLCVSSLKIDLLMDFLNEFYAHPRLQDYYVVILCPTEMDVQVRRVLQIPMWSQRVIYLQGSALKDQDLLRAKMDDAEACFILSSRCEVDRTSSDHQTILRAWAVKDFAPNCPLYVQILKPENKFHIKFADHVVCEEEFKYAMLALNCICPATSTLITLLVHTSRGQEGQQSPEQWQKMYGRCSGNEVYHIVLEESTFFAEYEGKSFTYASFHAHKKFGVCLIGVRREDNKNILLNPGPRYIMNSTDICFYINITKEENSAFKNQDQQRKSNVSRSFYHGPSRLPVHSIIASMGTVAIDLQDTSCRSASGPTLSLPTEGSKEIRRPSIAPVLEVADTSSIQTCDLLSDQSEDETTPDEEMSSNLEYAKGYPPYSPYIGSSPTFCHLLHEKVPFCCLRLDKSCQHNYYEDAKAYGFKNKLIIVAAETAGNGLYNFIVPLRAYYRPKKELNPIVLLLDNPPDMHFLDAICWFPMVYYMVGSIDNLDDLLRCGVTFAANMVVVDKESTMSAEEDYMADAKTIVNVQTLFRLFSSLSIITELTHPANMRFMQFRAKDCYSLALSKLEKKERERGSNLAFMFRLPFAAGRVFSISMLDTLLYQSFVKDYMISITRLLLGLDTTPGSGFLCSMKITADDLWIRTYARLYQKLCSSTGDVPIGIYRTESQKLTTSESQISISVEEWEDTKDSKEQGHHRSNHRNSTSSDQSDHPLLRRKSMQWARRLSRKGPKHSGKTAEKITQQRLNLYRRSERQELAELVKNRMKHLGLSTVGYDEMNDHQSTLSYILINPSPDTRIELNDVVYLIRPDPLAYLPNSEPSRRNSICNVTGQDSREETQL
T1 sequence (O14649 whole entry): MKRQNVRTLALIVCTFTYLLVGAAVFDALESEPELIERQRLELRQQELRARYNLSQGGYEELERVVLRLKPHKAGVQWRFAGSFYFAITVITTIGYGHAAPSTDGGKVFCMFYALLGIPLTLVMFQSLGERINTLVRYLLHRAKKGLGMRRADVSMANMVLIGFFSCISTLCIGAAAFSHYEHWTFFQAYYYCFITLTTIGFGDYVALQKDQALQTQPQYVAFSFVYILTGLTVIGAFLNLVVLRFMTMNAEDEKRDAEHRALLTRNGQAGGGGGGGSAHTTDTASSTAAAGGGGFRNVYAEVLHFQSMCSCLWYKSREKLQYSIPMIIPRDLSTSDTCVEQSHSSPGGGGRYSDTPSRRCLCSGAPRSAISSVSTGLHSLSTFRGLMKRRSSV
T7 sequence (O95180 whole entry): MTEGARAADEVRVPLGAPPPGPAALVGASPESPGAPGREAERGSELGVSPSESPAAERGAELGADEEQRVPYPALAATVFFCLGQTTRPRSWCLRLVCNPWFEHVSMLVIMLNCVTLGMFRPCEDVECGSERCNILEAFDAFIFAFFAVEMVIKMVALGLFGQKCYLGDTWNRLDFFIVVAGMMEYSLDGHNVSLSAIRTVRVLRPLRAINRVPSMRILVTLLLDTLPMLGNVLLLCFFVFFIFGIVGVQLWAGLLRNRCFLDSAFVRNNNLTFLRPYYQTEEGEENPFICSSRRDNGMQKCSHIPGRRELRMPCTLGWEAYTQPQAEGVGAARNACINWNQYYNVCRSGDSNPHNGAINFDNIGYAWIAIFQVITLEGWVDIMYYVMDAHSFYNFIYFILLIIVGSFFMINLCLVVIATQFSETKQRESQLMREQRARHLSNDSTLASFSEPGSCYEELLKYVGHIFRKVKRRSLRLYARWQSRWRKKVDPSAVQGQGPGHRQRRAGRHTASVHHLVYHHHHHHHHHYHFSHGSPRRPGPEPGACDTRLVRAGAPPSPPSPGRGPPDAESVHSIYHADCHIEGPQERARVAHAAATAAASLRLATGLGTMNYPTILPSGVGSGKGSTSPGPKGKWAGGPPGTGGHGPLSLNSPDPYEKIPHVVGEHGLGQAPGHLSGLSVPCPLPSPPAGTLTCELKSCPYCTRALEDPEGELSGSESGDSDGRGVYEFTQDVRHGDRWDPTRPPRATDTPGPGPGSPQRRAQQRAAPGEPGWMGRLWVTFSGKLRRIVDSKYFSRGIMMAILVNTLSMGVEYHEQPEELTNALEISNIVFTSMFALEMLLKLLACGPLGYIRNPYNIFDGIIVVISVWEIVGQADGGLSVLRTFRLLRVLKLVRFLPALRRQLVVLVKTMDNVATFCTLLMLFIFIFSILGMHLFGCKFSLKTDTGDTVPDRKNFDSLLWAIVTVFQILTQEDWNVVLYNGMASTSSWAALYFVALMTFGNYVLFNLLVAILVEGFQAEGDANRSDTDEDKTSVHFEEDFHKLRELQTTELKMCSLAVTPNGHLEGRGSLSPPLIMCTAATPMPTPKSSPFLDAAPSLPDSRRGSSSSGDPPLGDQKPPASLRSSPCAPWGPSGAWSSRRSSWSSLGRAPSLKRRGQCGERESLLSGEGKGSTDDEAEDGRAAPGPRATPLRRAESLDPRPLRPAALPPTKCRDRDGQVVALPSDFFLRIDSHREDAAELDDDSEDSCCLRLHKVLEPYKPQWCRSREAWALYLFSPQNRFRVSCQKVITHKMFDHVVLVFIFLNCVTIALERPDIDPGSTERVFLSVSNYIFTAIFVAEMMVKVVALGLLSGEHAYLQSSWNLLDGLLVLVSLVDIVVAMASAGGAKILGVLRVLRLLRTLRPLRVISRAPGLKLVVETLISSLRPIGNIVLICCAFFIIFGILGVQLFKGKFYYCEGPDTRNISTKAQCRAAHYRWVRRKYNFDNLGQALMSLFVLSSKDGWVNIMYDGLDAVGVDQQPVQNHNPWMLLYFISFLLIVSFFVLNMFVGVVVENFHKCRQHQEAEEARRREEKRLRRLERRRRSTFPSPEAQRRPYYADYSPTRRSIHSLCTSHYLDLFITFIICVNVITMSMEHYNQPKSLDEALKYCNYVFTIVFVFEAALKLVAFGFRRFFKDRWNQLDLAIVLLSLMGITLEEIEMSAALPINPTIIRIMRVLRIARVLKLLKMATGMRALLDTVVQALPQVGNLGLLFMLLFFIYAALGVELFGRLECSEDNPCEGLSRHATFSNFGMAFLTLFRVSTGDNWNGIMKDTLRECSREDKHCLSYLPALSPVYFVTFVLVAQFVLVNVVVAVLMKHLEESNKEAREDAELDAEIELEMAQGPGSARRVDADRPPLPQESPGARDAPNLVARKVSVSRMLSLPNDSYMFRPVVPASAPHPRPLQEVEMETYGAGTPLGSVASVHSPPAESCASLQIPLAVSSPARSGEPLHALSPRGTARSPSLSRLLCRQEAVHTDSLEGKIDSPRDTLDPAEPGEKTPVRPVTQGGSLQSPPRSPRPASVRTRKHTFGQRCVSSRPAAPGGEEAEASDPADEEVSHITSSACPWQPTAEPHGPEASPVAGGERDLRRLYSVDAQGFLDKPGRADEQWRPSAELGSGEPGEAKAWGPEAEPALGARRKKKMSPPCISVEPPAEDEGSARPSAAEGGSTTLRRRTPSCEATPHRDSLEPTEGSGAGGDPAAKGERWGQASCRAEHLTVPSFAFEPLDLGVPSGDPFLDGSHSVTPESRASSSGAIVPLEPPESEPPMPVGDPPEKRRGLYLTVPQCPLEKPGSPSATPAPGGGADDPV
T4 sequence (Q14721 whole entry): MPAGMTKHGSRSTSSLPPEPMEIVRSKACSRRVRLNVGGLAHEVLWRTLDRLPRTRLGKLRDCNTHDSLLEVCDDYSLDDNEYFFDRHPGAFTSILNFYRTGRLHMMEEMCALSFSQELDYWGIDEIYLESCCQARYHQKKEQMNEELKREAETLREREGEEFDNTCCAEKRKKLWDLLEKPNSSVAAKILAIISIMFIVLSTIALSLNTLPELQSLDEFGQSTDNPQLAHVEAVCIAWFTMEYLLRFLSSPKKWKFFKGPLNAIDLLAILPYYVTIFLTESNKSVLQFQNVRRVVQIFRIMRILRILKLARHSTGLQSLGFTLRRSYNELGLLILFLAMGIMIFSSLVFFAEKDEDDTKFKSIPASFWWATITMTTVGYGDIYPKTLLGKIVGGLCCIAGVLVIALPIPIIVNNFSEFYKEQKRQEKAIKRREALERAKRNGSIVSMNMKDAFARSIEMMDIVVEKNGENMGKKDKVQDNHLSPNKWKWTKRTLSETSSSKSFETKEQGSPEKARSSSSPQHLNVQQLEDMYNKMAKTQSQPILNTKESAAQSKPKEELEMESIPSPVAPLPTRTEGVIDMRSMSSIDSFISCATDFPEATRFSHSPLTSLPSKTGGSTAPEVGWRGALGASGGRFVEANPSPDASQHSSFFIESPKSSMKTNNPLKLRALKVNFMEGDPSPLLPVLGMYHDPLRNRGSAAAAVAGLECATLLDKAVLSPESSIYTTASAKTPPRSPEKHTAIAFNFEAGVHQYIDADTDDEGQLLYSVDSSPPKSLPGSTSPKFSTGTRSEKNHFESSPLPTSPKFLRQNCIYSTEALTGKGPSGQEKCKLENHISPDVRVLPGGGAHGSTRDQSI

| SMILES | inhibition at 10 µM (TASK-1) | inhibition at 10 µM (KV7.2) | inhibition at 120 s, 10 µM (hERG) | inhibition at 10 µM (KV2.1) | inhibition at 10 µM (SLICK; HEK293, relative to control SKF96365, read-out: Percent Inhibition ± SEM, SLICK) | inhibition at 10 µM (Maxi-K α1/β3) | inhibition at 10 µM (CaV3.2) | Percent activation ± SEM, SLICK (SLICK; activator, relative to control acetazolamide) |
| --- | --- | --- | --- | --- | --- | --- | --- | --- |
| CN(c1ccc(C#N)cc1)c1ncc(NC(=O)C(C)(C)Oc2ccc(Cl)cc2)cn1 [Analog 66] | 18 ± 2% | 1.6 ± 0.94% | 13 ± 3.3% | 10 ± 1.6% | 16 ± 1.4% | 30 ± 2.6% | 32 ± 2.4% |  |
| CC(C)(Oc1ccc(Cl)cc1)C(=O)Nc1cnc(Oc2c(F)cccc2F)nc1 [Analog 40] | 24 ± 3.7% | 1.3 ± 1% | 0.9 ± 2.9% | 13 ± 5% |  | 27 ± 11% | 10 ± 0.82% | 36% and 36 ± 8.8 (activator) ^3% |
